Several values for one entry are separate records, joined by “and”; a condition that tells them apart may be missing. Equal entries are not always repeated.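 Step 1: Grow cells in 96-well plates. Step 2: Expose to compound for 48 hours at 5 concentrations. Step 3: Interpolate endpoints linearly; if unreached, use highest concentration. Here, GI50 denotes the concentration required for 50% inhibition of growth. TGI: concentration producing complete growth inhibition.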
Columns and labels:
Test in all cases: NCI tumour cell line growth inhibition, 48 h
[1] = system: HS 578T breast
[2] = system: HCT-15 colon
[3] = system: SR leukemia
[4] = system: KM12 colon
[5] = system: 786-0 renal
[6] = system: MDA-N
[7] = system: EKVX NSCLC
[8] = system: HCT-116 colon
[9] = system: M14 melanoma
[10] = system: SN12K1 renal
[11] = system: HOP-18 NSCLC

SMILES: C=C1C(=O)O[C@@H]2/C=C(\C)CC/C=C(\C)CC[C@@]12O
- TGI [1]: 22.7 µM
- TGI [2]: 9.27 µM
- TGI [3]: 10.8 µM
- TGI [4]: 25 µM
- TGI [5]: 2.71 µM
- TGI [6]: 6.42 µM
- TGI [7]: 12.1 µM
- TGI [8]: 6.69 µM
- TGI [9]: 10.5 µM

SMILES: COC(=O)C1=C(C)N2CCSC2(C)C(C(=O)OC)C1c1cccc(Cl)c1 (stereo unspecified)
- TGI [3]: 66.7 µM
- TGI [4]: 62.3 µM
- TGI [7]: 42.1 µM
- TGI [8]: 34.9 µM
- TGI [9]: 89.3 µM

SMILES: CC[C@@]1(O)C(=O)OCc2c1cc1n(c2=O)Cc2cc3ccccc3nc2-1
- TGI [1]: > 100 µM
- TGI [2]: 7.99 µM
- TGI [10]: 1 µM
- TGI [3]: 0.0769 µM
- GI50 [4]: 0.292 µM
- TGI [4]: 5.61 µM
- TGI [11]: 2.14 µM
- TGI [7]: 1.6 µM
- TGI [8]: 1.91 µM
- TGI [9]: 1.8 µM

SMILES: CCN1c2cc(Br)cc3[nH]c(=O)n(c23)CCC1C (stereo unspecified)
- TGI [1]: 28.9 µM
- TGI [2]: 35.5 µM
- TGI [3]: 65.9 µM
- TGI [4]: 47.4 µM
- TGI [5]: 28.1 µM
- TGI [6]: 19.2 µM
- TGI [7]: 23.5 µM
- TGI [8]: 28.3 µM
- TGI [9]: 34.8 µM

SMILES: Clc1cc(Cl)c2cc3cccc[n+]3cc2c1Cl
- TGI [1]: 38.7 µM
- TGI [2]: 36.1 µM
- TGI [3]: 32.9 µM
- TGI [5]: 46.7 µM
- TGI [6]: 32.8 µM
- TGI [7]: 30.8 µM
- TGI [8]: > 100 µM
- TGI [9]: 39 µM

SMILES: CNC1Cc2c[nH]c3cccc(c23)C12C=C(C)C(=O)O2 (stereo unspecified)
- TGI [1]: > 100 µM
- TGI [2]: > 100 µM
- TGI [3]: > 100 µM
- TGI [4]: > 100 µM
- TGI [5]: > 100 µM
- TGI [6]: > 100 µM
- TGI [7]: > 100 µM
- TGI [8]: > 100 µM
- TGI [9]: > 100 µM

SMILES: Nc1ccc(O)c2c1C(=O)c1c(N)ccc(O)c1C2=O
- TGI [2]: > 100 µM
- TGI [4]: > 100 µM
- TGI [5]: > 100 µM
- TGI [7]: > 100 µM
- TGI [8]: > 100 µM
- TGI [9]: > 100 µM

SMILES: Nc1[nH]c(=S)nc2nc3c(c(-c4ccccc4)c12)CCCC3
- TGI [1]: > 100 µM
- TGI [2]: > 100 µM
- TGI [3]: > 100 µM
- TGI [4]: > 100 µM
- TGI [6]: > 100 µM
- TGI [7]: > 100 µM
- TGI [8]: > 100 µM
- TGI [9]: > 100 µM

SMILES: CC(C)(C)OC(=O)N1C(OP(=O)(Oc2ccccc2)Oc2ccccc2)=CSc2ccccc21
- TGI [1]: > 100 µM
- TGI [2]: > 100 µM
- TGI [3]: > 100 µM
- TGI [4]: > 100 µM
- TGI [5]: > 100 µM
- TGI [6]: > 100 µM
- TGI [7]: > 100 µM
- TGI [8]: > 100 µM
- TGI [9]: 68.6 µM

SMILES: CC(C)(C)c1ccc2c(c1)C#Cc1cc(C(C)(C)C)ccc1OCCCO2
- TGI [1]: > 100 µM
- TGI [2]: > 100 µM
- TGI [4]: > 100 µM
- TGI [5]: > 100 µM
- TGI [6]: > 100 µM
- TGI [7]: > 100 µM
- TGI [8]: > 100 µM
- TGI [9]: > 100 µM

SMILES: COc1cc(/C=C2\N=C(c3ccccc3)N(c3ccc(C(=O)c4ccccc4)cc3N3C(=O)/C(=C/c4ccc(O)c(OC)c4)N=C3c3ccccc3)C2=O)ccc1O
- TGI [1]: 46.6 µM
- TGI [2]: 40.3 µM
- TGI [3]: 33.9 µM
- TGI [4]: 22.4 µM
- TGI [5]: 61.2 µM
- TGI [6]: 40 µM
- TGI [7]: 76.4 µM
- TGI [8]: 23.2 µM
- TGI [9]: 25.1 µM

SMILES: NC(CCOCCP(=O)(O)CCC1C=CC=CC1)C(=O)O (stereo unspecified)
- TGI [1]: > 100 µM
- TGI [2]: > 100 µM
- TGI [3]: > 100 µM
- TGI [4]: > 100 µM
- TGI [6]: > 100 µM
- TGI [7]: > 100 µM
- TGI [8]: > 100 µM
- TGI [9]: > 100 µM

SMILES: CCN(CC)CC[n+]1ccc2c(C)c3[nH]c4ccc(O)cc4c3c(C)c2c1
- TGI [1]: 15.8 µM
- TGI [2]: 143 µM
- GI50 [10]: 0.748 µM
- TGI [10]: 11.9 µM and 16.6 µM
- TGI [3]: 1.74 µM
- GI50 [4]: 3.72 µM
- TGI [4]: 20.1 µM and 17.6 µM
- TGI [5]: > 40.7 µM
- GI50 [11]: 5.6 µM
- TGI [11]: 17.9 µM and 42.8 µM
- TGI [6]: 25.7 µM
- GI50 [7]: 2.03 µM
- TGI [7]: 38.8 µM and 14.8 µM
- GI50 [8]: 4.36 µM
- TGI [8]: 26.7 µM and 30.8 µM
- TGI [9]: 34.9 µM

SMILES: OCC(O)CNc1ncnc2ccccc12 (stereo unspecified)
- TGI [1]: > 100 µM
- TGI [2]: > 100 µM
- TGI [4]: > 100 µM
- TGI [5]: > 100 µM
- TGI [6]: > 100 µM
- TGI [7]: > 100 µM
- TGI [8]: > 100 µM
- TGI [9]: > 100 µM

SMILES: CCOC(=O)CCC(C(=O)OCC)n1nc2ccc(Nc3c(C)[n+]([O-])c4cc(F)c(OCC)cc4[n+]3[O-])cc2n1 (stereo unspecified)
- TGI [1]: 90.7 µM
- TGI [2]: > 100 µM
- TGI [3]: > 100 µM
- TGI [4]: > 100 µM
- TGI [5]: 71.5 µM
- TGI [6]: > 100 µM
- TGI [7]: 98.1 µM
- TGI [8]: > 100 µM
- TGI [9]: > 100 µM

Source: PubChem BioAssay (NCI)
